Test results taken from patent US20110311621A1, “PHARMACEUTICAL COMPOSITIONS AND METHODS OF DELVERY” (priority 2010, published 2011).

What was measured:
conscious rats = test: Effect of CCK-8 on food intake: volume of D-glucose solution consumed by conscious rats; format: in vivo, Sprague Dawley rats; settings: 0.165 mg CCK-8 per rat; 30 min post administration
Protocol: Three of the above formulations (R, S and T) were prepared as follows for use in testing biological activity: Formulation R at levels of 0.165, 0.055, 0.003 mg CCK-8 per rat; Formulation S at 0.09 mg CCK-8 per rat; and Formulation T at 0.09 mg CCK-8 per rat. Thus Formulation R with 0.055 CCK-8 (% w/w) was used at 0.3 and 0.1 ml per rat to give a dose of 0.165 and 0.055 (mg per rat); Formulation R with 0.001 CCK-8 (% w/w) was used at 0.3 ml per rat to give a dose of 0.003 mg per rat; and Formulations S and T with 0.03 CCK-8 (% w/w) were both used at 0.3 ml to give a dose of 0.09 mg per rat.
The effect of oral administration of CCK8 on food intake was achieved by measuring the volume of D-glucose consumed by conscious rats (essentially using the method described by Chun-Min et al., Am. Physio. Soc. 296:R43-R50, 2009). The feeding response of conscious rats to exogenous oral CCK-8 was analyzed by measuring the volume of D-glucose solution consumed. Sprague Dawley rats cannulated at the jejunum (as described in Example 2) were fasted for 18 h. The fasted animals were administrated with a dose range of exogenous CCK8 using three formulations. Three groups served as controls: Rats administered with formulation alone; rats administered with CCK-8 in saline (0.165 mg
The volume of glucose solution consumption was measured at 30 min, 60 min and 90 min post administration. […]

[1] = Aliskiren bioavailability after jejunal administration to conscious rats, compared with oral solution by gavage; settings: AUC relative to aliskiren oral solution (gavage)
From the text: (i) Jejunal Administration to Conscious rats
To test the bioavailability of formulations in the jejunum of conscious rats, a specialized rat model was established in which two different cannulas are surgically implanted in male Sprague-Dowley rats (other rats may also be used): • 1—jejunal cannula to bypass the stomach and enable direct formulation administration to the jejunum; and • 2—jugular vein cannula to determine the systematic levels of the administered dextran following jejunal administration.
Rats were allowed to recover for 4 days before the study and were deprived of food for 18 hours before the start of the study. […]
Blood samples were drawn from the jugular vein at an appropriate series of times post jejunal administration and post IV administration, (or post SC administration), plasma was prepared and levels of active ingredient were determined in each sample. The average absolute Bioavailability (aBA) achieved after jejunal administration of the formulation is calculated as described below.
Exposure values, AUC (0-T), are calculated from the area under the serum concentration versus time curve (AUC) and are determined for jejunal and intravenous administration (or SC administration). […]

Compound | Average volume of glucose solution consumed (± standard error) (conscious rats) | Median volume of glucose solution consumed (conscious rats) | Fold from gavage [1]
CSCC[C@H](NC(=O)[C@H](Cc1ccc(OS(=O)(=O)O)cc1)NC(=O)[C@@H](N)CC(=O)O)C(=O)NCC(=O)N[C@@H](Cc1c[nH]c2ccccc12)C(=O)N[C@@H](CCSC)C(=O)N[C@@H](CC(=O)O)C(=O)N[C@@H](Cc1ccccc1)C(N)=O [CCK8 in saline, Sincalide] | 6.80 ± 0.99 mL | 7.90 mL | 
COCCCOc1cc(C[C@@H](C[C@H](N)[C@@H](O)C[C@H](C(=O)NCC(C)(C)C(N)=O)C(C)C)C(C)C)ccc1OC [Aliskiren oral solution, aliskiren] |  |  | 1
